BindingDB's records for doi:10.1016/j.bmc.2007.01.044 (University of San Francisco, 2007)

Biological target: T1, UDP-3-O-acyl-N-acetylglucosamine deacetylase (Aquifex aeolicus (strain VF5), UniProt O67648)
T1 sequence (O67648 whole entry): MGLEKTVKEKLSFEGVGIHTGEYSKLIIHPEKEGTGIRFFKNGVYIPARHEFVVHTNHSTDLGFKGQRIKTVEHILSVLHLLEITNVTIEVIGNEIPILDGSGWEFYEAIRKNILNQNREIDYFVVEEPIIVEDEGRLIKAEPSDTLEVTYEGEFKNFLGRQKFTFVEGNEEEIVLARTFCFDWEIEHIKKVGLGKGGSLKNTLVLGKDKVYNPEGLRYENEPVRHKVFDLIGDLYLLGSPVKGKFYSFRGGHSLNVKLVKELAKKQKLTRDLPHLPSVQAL
Test: Ligand Affinity Measurements
Details: pH 7; 30 °C
Method: Ligand binding to A. aeolicus LpxC was assayed by isothermal titration using isothermal microcalorimeter from Microcal, Inc. (Northampton, MA). The enzyme was stripped of all metal ions, and was reconstituted with Zn2+ (1:1 ratio) by the addition of ZnSO4. The calorimeter cell contained enzyme (40 or 60 uM), and the syringe contained ligand (250 or 400 uM). A series of 30 injections of 8 ul each were performed at 180-s intervals. Titrations of aliphatic compounds into buffer were also performed as control experiments using identical conditions. Data were fit to a single binding site model using Origin v. 2.9.

Kd	SMILES
0.9 µM	CCCCCCCCCCCC(=O)O [dodecanoate]
7 µM	CCCCCCCCCC(=O)O [decanoate]
> 100 µM	CCCCCCCC(=O)O [octanoic acid]
